Literature values as cited in US20120083452A1, “Topical Anesthetic Uses of Szeto-Schiller Peptides” (priority 2010, published 2012).
Square brackets hold non-standard residues; d marks the D form. Ends that are not written are not given here. Dmt = Cc1cc(O)cc(C)c1C[C@H](N)C(=O)O

Experiments:
isolated mitochondria = conditions: for MPP+-induced inhibition of oxygen consumption: MPP+ (1-methyl-4-phenylpyridium)
[1] = compared with SS-02
LDL = conditions: compared with SS-02
mice = mice studies

Row | Substance | MPP+-induced inhibition of ATP production (isolated mitochondria) | MPP+-induced mitochondrial swelling (isolated mitochondria) | MPP+-induced inhibition of oxygen consumption (isolated mitochondria) | scavenging H2O2 [1] | inhibiting LDL oxidation (LDL) | treatment of Parkinson's Disease (PD) or Amyotrophic Lateral Sclerosis (ALS) (mice)
1 | D-Arg-2′,6′-Dmt-Lys-Phe-NH2 ([dR][Dmt]KF-NH2) [SS-31] | prevented | prevented | prevented | as effective as SS-02 | as effective as SS-02 | may be effective
2 | Phe-D-Arg-Phe-Lys-NH2 (F[dR]FK-NH2; N-terminus assumed; SMILES N=C(N)NCCC[C@@H](NC(=O)[C@@H](N)Cc1ccccc1)C(=O)N[C@@H](Cc1ccccc1)C(=O)N[C@@H](CCCCN)C(N)=O) [SS-20] | prevented | prevented | prevented | eliminated the scavenging ability |  | may be effective
